# ChEMBL document CHEMBL1146600, “Preparation of 7-substituted ginkgolide derivatives: potent platelet activating factor (PAF) receptor antagonists” (J Med Chem, 2003)
# Molecular target: Platelet-activating factor receptor (Cavia porcellus, UniProt P21556)
# Assay: Displacement of [3H]-WEB 2086 from Platelet activating factor receptor (guinea pig) transgenic mouse muscle membrane
# Sequence of Platelet-activating factor receptor (P21556 whole entry): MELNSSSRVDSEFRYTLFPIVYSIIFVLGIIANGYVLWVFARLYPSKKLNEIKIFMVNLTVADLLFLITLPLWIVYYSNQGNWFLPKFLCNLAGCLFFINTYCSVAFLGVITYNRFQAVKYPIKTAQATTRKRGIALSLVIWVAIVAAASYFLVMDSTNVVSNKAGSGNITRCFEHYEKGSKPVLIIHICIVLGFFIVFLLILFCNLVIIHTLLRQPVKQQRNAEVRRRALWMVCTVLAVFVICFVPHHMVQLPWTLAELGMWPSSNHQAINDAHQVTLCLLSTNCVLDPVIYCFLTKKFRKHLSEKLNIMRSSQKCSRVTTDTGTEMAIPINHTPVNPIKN
row,SMILES,Ki
1,"C[C@@H]1C(=O)O[C@H]2[C@H](O)[C@@]34[C@H]5CC(C(C)(C)C)[C@]36[C@@H](OC(=O)[C@@H]6O)O[C@@]4(C(=O)O5)[C@@]12O (single isomer, unassigned) [GINKOLIDE B]",0.88 µM
2,CN[C@H]1C2OC(=O)C34OC5OC(=O)[C@H](O)C5([C@H]1C(C)(C)C)C23[C@@H](O)C1OC(=O)[C@@H](C)[C@@]14O (some centres undefined),0.61 µM
3,"C[C@@H]1C(=O)O[C@H]2[C@H](O)[C@]34[C@@H]5OC(=O)[C@]3(OC3OC(=O)[C@H](O)C34C(C(C)(C)C)[C@@H]5O)[C@@]12O (single isomer, unassigned)",12.6 µM
4,CCN[C@H]1C2OC(=O)C34OC5OC(=O)[C@H](O)C5([C@H]1C(C)(C)C)C23[C@@H](O)C1OC(=O)[C@@H](C)[C@@]14O (some centres undefined),1.62 µM
5,C[C@@H]1C(=O)OC2[C@H](O)C34C5OC(=O)C3(OC3OC(=O)[C@H](OCc6ccccc6)C34[C@@H](C(C)(C)C)[C@H]5O)[C@]21O (some centres undefined),0.6 µM
6,C[C@@H]1C(=O)OC2[C@H](O)C34C5OC(=O)C3(OC3OC(=O)[C@H](O)C34[C@@H](C(C)(C)C)[C@H]5F)[C@]21O (some centres undefined),0.99 µM
7,C[C@@H]1C(=O)OC2[C@H](O)C34C5C[C@H](C(C)(C)C)C36C(OC(=O)[C@@H]6OCc3ccccc3)OC4(C(=O)O5)[C@]21O (some centres undefined),0.12 µM
8,C[C@@H]1C(=O)OC2[C@H](O)C34C5OC(=O)C3(OC3OC(=O)[C@H](OCc6ccccc6)C34[C@@H](C(C)(C)C)[C@@H]5O)[C@]21O (some centres undefined),1.67 µM
9,C[C@@H]1C(=O)OC2[C@H](O)C34C5OC(=O)C3(OC3OC(=O)[C@H](OCc6ccccc6)C34[C@@H](C(C)(C)C)[C@H]5F)[C@]21O (some centres undefined),0.1 µM
10,C[C@@H]1C(=O)OC2[C@H](O)C34C5OC(=O)C3(OC3OC(=O)[C@H](O)C34[C@@H](C(C)(C)C)[C@H]5N)[C@]21O (some centres undefined),8.64 µM
11,"C[C@@H]1C(=O)O[C@H]2[C@H](O)[C@]34[C@@H]5OC(=O)[C@]3(OC3OC(=O)[C@H](O)C34C(C(C)(C)C)[C@H]5O)[C@@]12O (single isomer, unassigned)",4.26 µM
12,CC(=O)O[C@H]1C2OC(=O)C34OC5OC(=O)[C@H](O)C5([C@H]1C(C)(C)C)C23[C@@H](O)C1OC(=O)[C@@H](C)[C@@]14O (some centres undefined),7.84 µM
13,C[C@@H]1C(=O)OC2[C@H](O)C34C5OC(=O)C3(OC3OC(=O)[C@H](O)C34[C@@H](C(C)(C)C)[C@H]5N=[N+]=[N-])[C@]21O (some centres undefined),0.55 µM
14,C[C@@H]1C(=O)OC2[C@H](O)C34C5OC(=O)C3(OC3OC(=O)[C@H](O)C34[C@@H](C(C)(C)C)[C@H]5Cl)[C@]21O (some centres undefined),0.11 µM
